Assay results: US20050123912A1, “Nucleic-acid associated proteins” (priority 2002, published 2005)

Experiments:
[1] = system: SEQ ID NO:64 expression in human C3A liver cells; test: Microarray expression of SEQ ID NO:64 in C3A liver cell cultures treated with steroids; format: cell-based; details: early confluent human C3A liver cells, 1 μM, 10 μM, and 100 μM for 1, 3, and 6 hours, compared to untreated cells
Method: Total RNA is isolated from tissue samples using the guanidinium thiocyanate method and poly(A)^+ RNA is purified using the oligo-(dT) cellulose method. Each poly(A)^+ RNA sample is reverse transcribed using MMLV reverse-transcriptase, 0.05 pg/μl oligo-(dT) primer (21mer), 1× first strand buffer, 0.03 units/μl RNase inhibitor, 500 μM dATP, 500 μM dGTP, 500 μM dTTP, 40 μM dCTP, 40 μM dCTP-Cy3 (BDS) or dCTP-Cy5 (Amersham Biosciences). The reverse transcription reaction is performed in a 25 ml volume containing 200 ng poly(A)^+ RNA with GEMBRIGHT kits (Incyte). Specific control poly(A)^+ RNAs are synthesized by in vitro transcription from non-coding yeast genomic DNA. After incubation at 37° C. for 2 hr, each reaction sample (one with Cy3 and another with Cy5 labeling) is treated with 2.5 ml of 0.5M sodium hydroxide and incubated for 20 minutes at 85° C. to the stop the reaction and degrade the RNA. Samples are purified using two successive CHROMA SPIN 30 gel filtration spin columns (Clontech, Palo Alto Calif.) and after combining, both reaction samples are ethanol precipitated using 1 ml of glycogen (1 mg/ml), 60 ml sodium acetate, and 300 ml of 100% ethanol. The sample is then dried to completion using a SpeedVAC (Savant Instruments Inc., Holbrook N.Y.) and resuspended in 14 μl 5×SSC/0.2% SDS.
Sequences of the present invention are used to generate array elements. Each array element is amplified from bacterial cells containing vectors with cloned cDNA inserts. PCR amplification uses primers complementary to the vector sequences flanking the cDNA insert. Array elements are amplified in thirty cycles of PCR from an initial quantity of 1-2 ng to a final quantity greater than 5 μg. Amplified array elements are then purified using [sequence]-400 (Amersham Biosciences). […]
Reporter-labeled hybridization complexes are detected with a microscope equipped with an Innova 70 mixed gas 10 W laser (Coherent, Inc., Santa Clara Calif.) capable of generating spectral lines at 488 nm for excitation of Cy3 and at 632 nm for excitation of Cy5. […]

[2] = relative to progesterone; cited from earlier work
[3] = system: SEQ ID NO:61 expression in human peripheral blood mononuclear cells (PBMCs); test: Microarray expression of SEQ ID NO:61 in PBMCs treated with acetaminophen; format: cell-based; details: human PBMCs treated with acetaminophen compared to untreated cells
From the text: Therefore, SEQ ID NO:61 is useful in disease staging and in diagnostic assays for immune disorders.

[4] = intranasal; relative to hydrocortisone; cited from earlier work

Row | Compound | expression of SEQ ID NO:64 [1] | pharmacological activity greater than progesterone [2] | decrease in expression of SEQ ID NO:61 [3] | anti-inflammatory and vasoconstrictive effects greater than those produced by hydrocortisone [4] [times]
1 | 6α-methyl-17-hydroxyprogesterone [medroxyprogesterone] | decreased expression | about 15 times |  | 
2 | CC(=O)Nc1ccc(O)cc1 [acetaminophen] |  |  | two-fold | 
3 | C[C@H]1C[C@H]2[C@@H]3CCC4=CC(=O)C=C[C@]4(C)[C@@]3(Cl)[C@@H](O)C[C@]2(C)[C@@]1(O)C(=O)CO [beclomethasone] | decreased expression |  |  | 5000
4 | C[C@]12C=CC(=O)C=C1CC[C@@H]1[C@@H]2C(=O)C[C@@]2(C)[C@H]1CC[C@]2(O)C(=O)CO [prednisone] | decreased expression |  |  | 
